The text below walks through data of patent US20230203005A1, “COMPOUNDS WITH TUBULIN POLYMERISATION INHIBITORY ACTIVITY AND IMMUNOMODULATORY PROPERTIES” (UNIVERSITE PARIS-SACLAY, priority 2018, published 2023).

Data set [1] has as its system HCT116 colorectal carcinoma. As to the kind of experiment: In vitro cytotoxicity (CellTiter-Blue), HCT116. The class given is cell-based. The following applies: Homo sapiens, HCT-116; 72 hours of incubation. How it is done:
(§1) The biological activity of the compounds of the invention were studied in vitro on […] human cancer cell lines of different tissular origins: HCT116 colorectal carcinoma; A2780R Cisplatin resistant ovary cancer; MiaPaca2 pancreatic cancer; K562R Doxorubicin resistant chronic myeloid leukaemia; JIM-T1 Trastuzumab-DM1 resistant mammal carcinoma; and HepG2 hepatic carcinoma. The cells selected for this study were incubated at 37° C. in the presence of one of the compounds added to the culture medium at different concentrations. The series of experiments carried out made it possible to determine the degree of toxicity of the compound tested, its effect on cell cycle progression as well as its capacity to induce cell death by apoptosis.
All the cell lines were maintained in culture at 37° C. in a humid atmosphere containing 5% CO2. Cell viability was evaluated using the reagent CellTiter-Blue™ (Promega, Wis., USA) while respecting the manufacturer's instructions. The cells were seeded in 96 well culture plates at a rate of 5000 cells per […] in 50 μl of culture medium. After 24 hours of culture, the compounds of generic formula (I) dissolved in DMSO were added individually to each of the wells at a rate of 50 μl per well. All the compounds were tested in triplicate for each concentration defined and each experiment was repeated 3 times. After 72 hours of incubation, 20 μL of resazurin were added to each well. After 2 hours of incubation, the fluorescence emitted was measured at 590 nm after excitation at 560 nm by means of a Victor type fluorescence reader (Perkin-Elmer, USA).
A general note: Resazurin is reduced to fluorescent resorufin, in cell work by metabolically active cells.

For a further data set, the system named is tubulin. As to the kind of experiment: Tubulin polymerisation inhibition (fluorescence assembly assay). The class given is biochemical, ewe. The following applies: inhibition of 50% of the maximum assembly rate; tubulin 10 μM. The protocol:
The tubulin is purified from ewe brains according to the Shelanski method by 2 assembly-disassembly cycles. The mother solution (15-20 mg/mL), stored at −196° C., is thawed and diluted in the assembly buffer (0.1 M MES, 0.5 mM MgCl2, 1 mM EGTA, and 1 mM GTP, pH 6.6) to have a final concentration of 10 μM. Tubulin assembly is monitored by fluorescence on 96 well plates according to the method of Barron et al. (Anal. Biochem. 315 (2003) 49-56). To the solution of tubulin (10 μM, 100 μL per well) is added the inhibitor (DMSO, 1 μL) and the solution is incubated for 45 min at room temperature. GTP (1 mM final) is next added, the solution is rapidly mixed and the fluorescence (λex=350 nm, λem=440 nm) is measured on a Wallac Victor fluorimeter (Perkin Elmer). The determination of the inhibition of 50% of the maximum assembly rate (IC50) is carried out in duplicate or triplicate over 10 concentrations surrounding the IC50.

Data set [2] concerns A2780R Cisplatin resistant ovary cancer. Put plainly: In vitro cytotoxicity (CellTiter-Blue), A2780R. The class given is cell-based. The following applies: Homo sapiens; 72 hours of incubation. The protocol: as §1
(§2) All the cell lines were maintained in culture at 37° C. in a humid atmosphere containing 5% CO2. Cell viability was evaluated using the reagent CellTiter-Blue™ (Promega, Wis., USA) while respecting the manufacturer's instructions. The cells were seeded in 96 well culture plates at a rate of 5000 cells per […] in 50 μl of culture medium. […] After 2 hours of incubation, the fluorescence emitted was measured at 590 nm after excitation at 560 nm by means of a Victor type fluorescence reader (Perkin-Elmer, USA).

Data set [3] deals with MiaPaca2 pancreatic cancer. As to the kind of experiment: In vitro cytotoxicity (CellTiter-Blue), MiaPaca2. Type of data set: cell-based. The following applies: Homo sapiens, MIA PaCa-2; 72 hours of incubation. How it is done: as §1, §2
For data set [4], the system named is K562R Doxorubicin resistant chronic myeloid leukaemia. Put plainly: In vitro cytotoxicity (CellTiter-Blue), K562R. The class given is cell-based. As to conditions: Homo sapiens, K-562R; 72 hours of incubation. How it is done:
as §1, §2

In data set [5] the test system is JIM-T1 Trastuzumab-DM1 resistant mammal carcinoma. As to the kind of experiment: In vitro cytotoxicity (CellTiter-Blue), JIM-T1. Type of data set: cell-based. As to conditions: Homo sapiens, JIMT-1; 72 hours of incubation. How it is done: as §1, §2
For data set [6] the following is noted: prior art WO 2008/122620; cited from earlier work.

Each structure is given as a SMILES string.

In the case of `CN(c1ccc2c(c1)c1ccccc1n2C)c1cc(C#N)nc2ccccc12` [Compound 2, 4-(Methyl(9-methyl-9H-carbazol-3-yl)amino)quinoline-2-carbonitrile], the IC50 in data set [1] worked out at 12 ± 0.8 nM; with tubulin, 1400 ± 510 nM.
Turning to `CN(c1ccc2c(c1)c1ccccc1n2C)c1ccnc2ccccc12` [Compound 4, N,9-Dimethyl-N-(quinolin-4-yl)-9H-carbazol-3-amine], the melting point was in the range of 222.2 to 228.4 °C.
On the same count and under the same terms, next, `Cc1cc(N(C)c2ccc3c(c2)c2ccccc2n3Cc2ccccc2)c2ccccc2n1` [Compound 5, 9-Benzyl-N-methyl-N-(2-methylquinolin-4-yl)-9H-carbazol-3-amine]: 192.7 to 196.5 °C.
With `COc1cccc2c(N(C)c3ccc4c(c3)c3ccccc3n4C)cc(C)nc12` [Compound 6, N-(8-Methoxy-2-methylquinolin-4-yl)-N,9-dimethyl-9H-carbazol-3-amine], the IC50 in data set [1] is 21.6 ± 0.71 nM; in the data set with tubulin, 1480 ± 520 nM.
For `Cc1cc(N(C)c2ccc3c(c2)c2ccccc2n3C)c2cc([N+](=O)[O-])ccc2n1` [Compound 7, N,9-Dimethyl-N-(2-methyl-6-nitroquinolin-4-yl)-9H-carbazol-3-amine], the melting point fell in the range of 207.6 to 212.4 °C.
The compound `CCn1c2ccccc2c2cc(N(C)c3cc(C)nc4ccccc34)ccc21` [Compound 8, 9-Ethyl-N-methyl-N-(2-methylquinolin-4-yl)-9H-carbazol-3-amine] displayed a melting point of 87.4 to 89.6 °C.
As to `Cc1nc(N(C)c2ccc3c(c2)c2ccccc2n3C)c2ccccc2n1` [Compound 9, N,9-Dimethyl-N-(2-methylquinazolin-4-yl)-9H-carbazol-3-amine], the IC50 in data set [1] is 2.4 ± 0.2 nM; with tubulin, 3800 ± 900 nM.
Consider `CN(c1ccc2c(c1)c1ccccc1n2C)c1nc(Cl)nc2ccccc12` [Compound 10, N-(2-Chloroquinazolin-4-yl)-N,9-dimethyl-9H-carbazol-3-amine], for which the IC50 was 1.06 ± 0.2 nM in data set [1] and 3140 ± 1040 nM in the data set on tubulin.
`Cc1cc(N(C)c2ccc3c(c2)c2cc(N)ccc2n3C)c2ccccc2n1` [Compound 14, N3,9-dimethyl-N3-(2-methylquinolin-4-yl)-9H-carbazole-3,6-diamine]: the values for the IC50 (in data set [1]; in the data set with tubulin) were 2.88 ± 1.54 nM and 2760 ± 500 nM, respectively.
In the same order, the values of `Cc1cc(N(C)c2ccc3c(c2)c2ccccc2n3C)c2cccc(O)c2n1` [Compound 15, 2-Methyl-4-(methyl(9-methyl-9H-carbazol-3-yl)amino)quinolin-8-ol] are 50.6 ± 0.66 nM and 1240 ± 400 nM.
For `Cc1cc(N(C)c2ccc3c(c2)c2ccccc2n3C)c2cc(N)ccc2n1` [Compound 16, N4,2-Dimethyl-N4-(9-methyl-9H-carbazol-3-yl)quinoline-4,6-diamine], the results for the IC50 (in data set [1]; with tubulin) were 24.5 ± 1.92 nM and 5760 ± 1470 nM, respectively.
For the compound `CN(c1ccc2c(c1)c1ccccc1n2C)c1cc(Cl)nc2ccccc12` [Compound 17, N-(2-Chloroquinolin-4-yl)-N,9-dimethyl-9H-carbazol-3-amine], the IC50 was 16.7 ± 0.38 nM in data set [1] and 1160 ± 310 nM in the data set with tubulin.
With `Cc1cc(N(C)c2ccc3c(ccn3C)c2)c2ccccc2n1` [Compound 18, N,2-Dimethyl-N-(1-methyl-1H-indol-5-yl)quinolin-4-amine], the IC50 amounted to 2 ± 0.04 nM in data set [1] and 1340 ± 450 nM in the data set with tubulin.
On to `CN(c1ccc2c(ccn2C)c1)c1cc(C#N)nc2ccccc12` [Compound 19, 4-(Methyl(1-methyl-1H-indol-5-yl)amino)quinoline-2-carbonitrile], for which the melting point was 173.1 to 174.2 °C. In data set [1], this compound registered an IC50 of 0.72 ± 0.03 nM. Also, the IC50 with tubulin came out at 2780 ± 1140 nM.
Turning to `CN(c1ccc2c(ccn2C)c1)c1cc(C(F)(F)F)nc2ccccc12` [Compound 20, N-Methyl-N-(1-methyl-1H-indol-5-yl)-2-(trifluoromethyl)quinolin-4-amine], the IC50 was determined as 3.28 ± 0.18 nM in data set [1] and 2500 ± 540 nM in the data set on tubulin.
With `CN(c1ccc2c(ccn2C)c1)c1nc(Cl)nc2ccccc12` [Compound 21, 2-Chloro-N-methyl-N-(1-methyl-1H-indol-5-yl)quinazolin-4-amine], the IC50 in data set [1] was found to be 0.2 ± 0.01 nM; in data set [2], 2.34 ± 0.18 nM; in data set [3] it was 0.62 ± 0.016 nM; in data set [4], 1.77 ± 0.162 nM; in data set [5] it was 0.52 ± 0.016 nM; in the data set with tubulin, 1190 ± 280 nM.
For `C=C(c1ccc(OC)c(O)c1)c1cc(OC)c(OC)c(OC)c1` [isoCA-4, Isocombretastatin A-4], in data set [6], the “Metabolism in the presence of hepatocytes” value was “do not metabolise in the presence of hepatocytes”.
As to `C=C(c1ccc(OC)c(N)c1)c1cc(OC)c(OC)c(OC)c1` [isoNH2CA-4, isoaminocombretastatin A-4], the “Metabolism in the presence of hepatocytes” value in data set [6] is “do not metabolise in the presence of hepatocytes”.

In general, IC50 refers to the concentration needed to halve the response being measured. A low value points to greater potency in that assay. What is called melting point is the temperature of the solid-liquid transition.
